Reference: patent publication US10702479B2, “Pharmaceutical formulation comprising sembragiline” (Hoffmann-La Roche Inc., priority 2015, dated 2020)
In brackets after ≈: the same amount, converted by molar mass. Where two headings read alike, the source gives them in different places.

Experiment: Solubility of Sembragiline in media at 37° C.
Type: physicochemical
Conditions: for solubility at 4 h: read-out: Solubility of Sembragiline After 4 h

Dose Solubility Ratio (1 mg, Water): 25
Dose Solubility Ratio (1 mg, pH 1, HCl 0.1N): 25
Dose Solubility Ratio (1 mg, pH 4.5, 50 mM acetate buffer): 25
Dose Solubility Ratio (1 mg, pH 6.8, 50 mM phosphate buffer): 25
Dose Solubility Ratio (1 mg, pH 7.5, 50 mM phosphate buffer): 25
Dose Solubility Ratio (5 mg, Water): 125
Dose Solubility Ratio (5 mg, pH 1, HCl 0.1N): 125
Dose Solubility Ratio (5 mg, pH 4.5, 50 mM acetate buffer): 125
Dose Solubility Ratio (5 mg, pH 6.8, 50 mM phosphate buffer): 125
Dose Solubility Ratio (5 mg, pH 7.5, 50 mM phosphate buffer): 125
solubility at 4 h (0.1 N HCl, simulated gastric fluid, pH 1, HCl 0.1N): 40 µg/mL (≈ 117 µM)
Solubility of Sembragiline 250 mL (Water): 10 mg
solubility at 4 h (Water): 40 µg/mL (≈ 117 µM)
solubility at 4 h (aqueous buffer, pH 4.5, 50 mM acetate buffer): 40 µg/mL (≈ 117 µM)
solubility at 4 h (aqueous buffer, pH 6.8, 50 mM phosphate buffer): 40 µg/mL (≈ 117 µM)
solubility at 4 h (aqueous buffer, pH 7.5, 50 mM phosphate buffer): 40 µg/mL (≈ 117 µM)
Solubility of Sembragiline 250 mL (pH 1, HCl 0.1N): 10 mg
Solubility of Sembragiline 250 mL (pH 4.5, 50 mM acetate buffer): 10 mg
Solubility of Sembragiline 250 mL (pH 6.8, 50 mM phosphate buffer): 10 mg
Solubility of Sembragiline 250 mL (pH 7.5, 50 mM phosphate buffer): 10 mg
SMILES: CC(=O)N[C@H]1CC(=O)N(c2ccc(OCc3cccc(F)c3)cc2)C1 [Sembragiline, N-[(3S)-1-[4-[(3-fluorophenyl)methoxy]phenyl]-5-oxo-pyrrolidin-3-yl]acetamide]
